Data: patent US11992489B2, “Substituted tetrahydroquinoline compounds as indoleamine 2,3-dioxygenase inhibitors” (Merck Sharp & Dohme LLC, priority 2018, dated 2024)

target: IDO1 (Homo sapiens, UniProt P14902); assay: IDO1 cellular assay in HeLa cells stimulated with IFNγ; format: cell-based; details: IFNγ 100 ng/mL, 300 uM L-tryptophan, about 48 hours, fluorescence readout, read-out: HeLa Cell Potency, IC50
Method: Biological Assays IDO1 Cellular Assay in HeLa Cells Stimulated with IFNγ
HeLa cells were cultured in complete HeLa culture medium (90% EMEM, 10% heat-inactivated fetal bovine serum) and expanded to about 1×10^9 cells. The cells were then collected and frozen down at 1×10^7 cells/vial in 1 mL frozen medium (90% complete HeLa culture medium, 10% DMSO).
Compounds to be tested were serially diluted in ten 3-fold steps in DMSO starting from 10 mM DMSO stocks in Echo low volume plate(s). Compound dilutions or DMSO alone were then dispensed from the dilution plate(s) into Greiner black 384-well assay plate(s) (catalog #781086, 50 nL/well) using an Echo 550 acoustic liquid handler (Labcyte).
Frozen HeLa cells were thawed and transferred into HeLa assay medium (99% complete HeLa culture medium, 1% Pen/Strep) with 20 mL medium/vial of cells. The cells were spun down at 250 g in a table top centrifuge for 5 min and suspended in same volume of HeLa assay medium. The cells were then counted and adjusted to a density of 2×10^5 cells/mL in HeLa assay medium. Sterile L-tryptophan were added to the cells with final concentration of 300 uM L-tryptophan. A small aliquot (2 mL/plate) of HeLa cells were set aside and were not treated with IFNγ, to serve as the Max-E control.
HeLa cells with and without IFNγ were dispensed to the respective wells of 384-well assay plates containing the compounds. The plates were incubated for about 48 hours at a 37° C., 5% CO2 incubator. Afterwards, 12 μL of 0.5 M methyl isonipecotate in dimethyl sulfoxide were added into each well and the plates were sealed and incubated at 37° C. without CO2 overnight. The plates were centrifuged for 1 min at 200×g. The resulting fluorescence was measured in a Spectramax plate reader (Molecular Devices) with a 400 nm excitation filter and a 510 nm emission filter.
The fluorescence intensity of each well was corrected for the background observed in wells with non-IFNγ-treated cells and was expressed as a fraction of the intensity observed in wells of IFNγ-treated cells and DMSO only. Potencies were calculated by linear least squares fit to the four parameter logistic IC50 equation.

Sequence of IDO1 (P14902 whole entry): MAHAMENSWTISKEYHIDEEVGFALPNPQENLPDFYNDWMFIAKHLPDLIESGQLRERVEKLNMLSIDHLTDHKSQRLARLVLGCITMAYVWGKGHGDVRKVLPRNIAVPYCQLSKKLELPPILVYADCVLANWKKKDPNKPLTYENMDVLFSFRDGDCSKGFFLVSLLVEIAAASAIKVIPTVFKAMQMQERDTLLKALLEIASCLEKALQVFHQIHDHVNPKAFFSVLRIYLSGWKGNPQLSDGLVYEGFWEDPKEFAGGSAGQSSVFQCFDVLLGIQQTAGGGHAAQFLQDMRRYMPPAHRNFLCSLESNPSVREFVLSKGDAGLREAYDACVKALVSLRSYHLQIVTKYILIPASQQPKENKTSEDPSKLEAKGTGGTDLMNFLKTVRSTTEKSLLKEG

Structure (SMILES) | IC50
O=C(NC1(c2ccc3c(n2)CCCC3OCC2CC2)CC1)c1ccc(F)cc1 (single isomer, unassigned) [Example 20, N-(1-(5-(cyclopropylmethoxy)-5,6,7,8-tetrahydroquinolin-2-yl)cyclopropyl)-4-fluorobenzamide] | 95.4 nM
O=C(NC1(c2ccc3c(n2)CCCC3Nc2cccc(Cl)c2)CC1)c1ccc(F)cc1 (stereo not drawn) [Example 16, N-(1-(5-((3-chlorophenyl)amino)-5,6,7,8-tetrahydroquinolin-2-yl)cyclopropyl)-4-fluorobenzamide] | 13.9 nM
O=C(NC1(c2ccc3c(n2)CCCC3c2cncc(F)c2)CC1)c1ccc(F)cc1 (stereo not drawn) [Example 24, 4-Fluoro-N-(1-(5-(5-fluoropyridin-3-yl)-5,6,7,8-tetrahydroquinolin-2-yl)cyclopropyl)benzamide] | 384 nM
CCC(NC(=O)c1ccc(F)cc1)c1ccc2c(n1)CCCC2c1cncc(F)c1 (stereo not drawn) [Example 25, 4-fluoro-N-(1-(5-(5-fluoropyridin-3-yl)-5,6,7,8-tetrahydroquinolin-2-yl)propyl)benzamide] | 2190 nM
O=C(NC1(c2ccc3c(n2)CCCC3Nc2cccc(Cl)c2)CC1)c1ccc(F)cc1 (stereo not drawn) [Example 17, N-(1-(5-((3-chlorophenyl)amino)-5,6,7,8-tetrahydroquinolin-2-yl)cyclopropyl)-4-fluorobenzamide] | 38.2 nM
Cc1nccc([C@@H]2CCCc3nc(C4(NC(=O)c5ccc(F)cc5)CC4)ccc32)n1 (single isomer, unassigned) [Example 22] | 41.3 nM
O=C(NC1(c2ccc3c(n2)CCCC3c2cncc(C(F)(F)F)c2)CC1)c1ccc(F)cc1 (stereo not drawn) [Example 28, 4-fluoro-N-(1-(5-(5-(trifluoromethyl)pyridin-3-yl)-5,6,7,8-tetrahydroquinolin-2-yl)cyclopropyl)benzamide] | 212 nM
Cc1nccc([C@H]2CCCc3nc(C4(NC(=O)c5ccc(F)cc5)CC4)ccc32)n1 (single isomer, unassigned) [Example 23] | 42.3 nM
CN(C)c1ncc(OC2CCCc3nc(C4(NC(=O)c5ccc(F)cc5)CC4)ccc32)cn1 (single isomer, unassigned) [Example 4, N-(1-(5-((2-(dimethylamino)pyrimidin-5-yl)oxy)-5,6,7,8-tetrahydroquinolin-2-yl)cyclopropyl)-4-fluorobenzamide] | 9.34 nM
CN(C)c1ncc(OC2CCCc3nc(C4(NC(=O)c5ccc(F)cc5)CC4)ccc32)cn1 (stereo not drawn) [Example 14, N-(1-(5-((2-(dimethylamino)pyrimidin-5-yl)oxy)-5,6,7,8-tetrahydroquinolin-2-yl)cyclopropyl)-4-fluorobenzamide] | 81.4 nM
Cc1ncc(OC2CCCc3nc(C4(NC(=O)c5ccc(F)cc5)CC4)ccc32)cn1 (stereo not drawn) [Example 13, 4-fluoro-N-(1-(5-((2-methylpyrimidin-5-yl)oxy)-5,6,7,8-tetrahydroquinolin-2-yl)cyclopropyl)benzamide] | 44.5 nM
O=C(NC1(c2ccc3c(n2)CCCC3Oc2ccc(F)nc2)CC1)c1ccc(F)cc1 (stereo not drawn) [Example 5, 4-fluoro-N-(1-(5((6-fluoropyridin-3-yl)oxy)-5,6,7,8-tetrahydroquinolin-2-yl)cyclopropyl)benzamide] | 12.4 nM
O=C(NC1(c2ccc3c(n2)CCCC3Oc2cncc(Cl)c2)CC1)c1ccc(F)cc1 (stereo not drawn) [Example 7, N-(1-(5-((5-chloropyridin-3-yl)oxy)-5,6,7,8-tetrahydroquinolin-2-yl)cyclopropyl)-4-fluorobenzamide] | 5.32 nM
N#Cc1cccc(OC2CCCc3nc(C4(NC(=O)c5ccc(F)cc5)CC4)ccc32)c1 (stereo not drawn) [Example 8, N-(1-(5-(3-cyanophenoxy)-5,6,7,8-tetrahydroquinolin-2-yl)cyclopropyl)-4-fluorobenzamide] | 2.16 nM
O=C(NC1(c2ccc3c(n2)CCCC3Oc2cncc(Cl)c2)CC1)c1ccc(F)cc1 (stereo not drawn) [Example 11, N-(1-(5-((5-chloropyridin-3-yl)oxy)-5,6,7,8-tetrahydroquinolin-2-yl)cyclopropyl)-4-fluorobenzamide] | 3.96 nM
O=C(NC1(c2ccc3c(n2)CCCC3OCC2CC2)CC1)c1ccc(F)cc1 (single isomer, unassigned) [Example 19, N-(1-(5-(cyclopropylmethoxy)-5,6,7,8-tetrahydroquinolin-2-yl)cyclopropyl)-4-fluorobenzamide] | 65.9 nM
Cc1nccc(C2CCCc3nc(C4(NC(=O)c5ccc(F)cc5)CC4)ccc32)n1 (stereo not drawn) [Example 21, 4-Fluoro-N-(1-(5-(2-methylpyrimidin-4-yl)-5,6,7,8-tetrahydroquinolin-2-yl)cyclopropyl)benzamide] | 25 nM
CCC(NC(=O)c1ccc(F)cc1)c1ccc2c(n1)CCCC2c1cncc(C(F)(F)F)c1 (stereo not drawn) [Example 29, 4-fluoro-N-(1-(5-(5-(trifluoromethyl)pyridin-3-yl)-5,6,7,8-tetrahydroquinolin-2-yl)propyl)benzamide] | 854 nM
N#Cc1cccc(OC2CCCc3nc(C4(NC(=O)c5ccc(F)cc5)CC4)ccc32)c1 (stereo not drawn) [Example 12, N-(1-(5-(3-cyanophenoxy)-5,6,7,8-tetrahydroquinolin-2-yl)cyclopropyl)-4-fluorobenzamide] | 5.69 nM
Cc1ncc(C2CCCc3nc(C4(NC(=O)c5ccc(F)cc5)CC4)ccc32)cn1 (stereo not drawn) [Example 30, 4-fluoro-N-(1-(5-(2-methylpyrimidin-5-yl)-5,6,7,8-tetrahydroquinolin-2-yl)cyclopropyl)benzamide] | 1420 nM
Cc1ncc(OC2CCCc3nc(C4(NC(=O)c5ccc(F)cc5)CC4)ccc32)cn1 (stereo not drawn) [Example 15, 4-fluoro-N-(1-(5-((2-methylpyrimidin-5-yl)oxy)-5,6,7,8-tetrahydroquinolin-2-yl)cyclopropyl)benzamide] | 130 nM
O=C(NC1(c2ccc3c(n2)CCCC3Oc2ccc(F)nc2)CC1)c1ccc(F)cc1 (stereo not drawn) [Example 9, 4-fluoro-N-(1-(5((6-fluoropyridin-3-yl)oxy)-5,6,7,8-tetrahydroquinolin-2-yl)cyclopropyL)benzamide] | 24.4 nM
Cc1cncc(C2CCCc3nc(C4(NC(=O)c5ccc(F)cc5)CC4)ccc32)c1 (stereo not drawn) [Example 26, 4-fluoro-N-(1-(5-(5-methylpyridin-3-yl)-5,6,7,8-tetrahydroquinolin-2-yl)cyclopropyl)benzamide] | 183 nM
O=C(NC1(c2ccc3c(n2)CCCC3OCC2CC2)CC1)c1ccc(F)cc1 (stereo not drawn) [Example 18, N-(1-(5-(cyclopropylmethoxy)-5,6,7,8-tetrahydroquinolin-2-yl)cyclopropyl)-4-fluorobenzamide] | 58.6 nM
CCC(NC(=O)c1ccc(F)cc1)c1ccc2c(n1)CCCC2c1cncc(C)c1 (stereo not drawn) [Example 27, 4-fluoro-N-(1-(5-(5-methylpyridin-3-yl)-5,6,7,8-tetrahydroquinolin-2-yl)propyl)benzamide] | 643 nM
Cc1ccncc1OC1CCCc2nc(C3(NC(=O)c4ccc(F)cc4)CC3)ccc21 (stereo not drawn) [Example 10, 4-fluoro-N-(1-(5-((4-methylpyridin-3-yl)oxy)-5,6,7,8-tetrahydroquinolin-2-yl)cyclopropyl)benzamide] | 108 nM
Cc1ccncc1OC1CCCc2nc(C3(NC(=O)c4ccc(F)cc4)CC3)ccc21 (stereo not drawn) [Example 6, 4-fluoro-N-(1-(5((4-methylpyridin-3-yl)oxy)-5,6,7,8-tetrahydroquinolin-2-yl)cyclopropyl)benzamide] | 9.96 nM
